# Assay results reported in ChEMBL document CHEMBL1157646, “Melanogenesis inhibitors from the desert plant Anastatica hierochuntica in B16 melanoma cells” (Bioorg Med Chem, 2010).
# Tested on: not listed separately
# Test: Toxicity in mouse B16-4A5 cells assessed as inhibition of cell proliferation at 10 uM in presence of 1 mM theophylline after 72 hrs by WST8 dye reduction assay
# Format: cell-based
# Settings: not given
row,Structure (SMILES),"inhibition at 72 h, 10 µM"
1,COc1cc(/C=C/C=O)ccc1O [CONIFERYL ALDEHYDE],-0.5%
2,COc1ccc([C@H]2Oc3c(OC)cc(/C=C/CO)cc3[C@@H]2CO)cc1OC [Hierochin B],10.9%

# Tested on: not listed separately
# Test: cells
# Settings: Mus musculus, B16-4A5, 72 h, read-out: INH
# Description: Inhibition of theophylline-stimulated melanogenesis in mouse B16-4A5 cells at 3 uM after 72 hrs
row,Structure (SMILES),inhibition at 3 µM
1,COc1cc(/C=C/C=O)ccc1O [CONIFERYL ALDEHYDE],11.6%
2,COc1ccc([C@H]2Oc3c(OC)cc(/C=C/CO)cc3[C@@H]2CO)cc1OC [Hierochin B],2.2%

# Tested on: not listed separately
# Test: cells
# Settings: Mus musculus, B16-4A5, 72 h, read-out: INH
# Remark: another data set of the same source
# Description: Inhibition of theophylline-stimulated melanogenesis in mouse B16-4A5 cells at 30 uM after 72 hrs
row,Structure (SMILES),inhibition at 30 µM
1,COc1cc(/C=C/C=O)ccc1O [CONIFERYL ALDEHYDE],39.1%
2,COc1ccc([C@H]2Oc3c(OC)cc(/C=C/CO)cc3[C@@H]2CO)cc1OC [Hierochin B],50.6%

# Tested on: not listed separately
# Test: Toxicity in mouse B16-4A5 cells assessed as inhibition of cell proliferation in presence of 1 mM theophylline after 72 hrs by WST8 dye reduction assay
# Format: cell-based
# Settings: not given
row,Structure (SMILES),IC50 at 72 h
1,COc1ccc([C@H]2Oc3c(OC)cc(/C=C/CO)cc3[C@@H]2CO)cc1OC [Hierochin B],> 100 µM

# Tested on: not listed separately
# Test: Toxicity in mouse B16-4A5 cells assessed as inhibition of cell proliferation at 1 uM in presence of 1 mM theophylline after 72 hrs by WST8 dye reduction assay
# Format: cell-based
# Settings: not given
row,Structure (SMILES),"inhibition at 72 h, 1 µM"
1,COc1cc(/C=C/C=O)ccc1O [CONIFERYL ALDEHYDE],-4.2%
2,COc1ccc([C@H]2Oc3c(OC)cc(/C=C/CO)cc3[C@@H]2CO)cc1OC [Hierochin B],0.3%

# Tested on: not listed separately
# Test: cells
# Settings: Mus musculus, B16-4A5, 72 h, read-out: INH
# Remark: another data set of the same source
# Description: Inhibition of theophylline-stimulated melanogenesis in mouse B16-4A5 cells at 10 uM after 72 hrs
row,Structure (SMILES),inhibition at 10 µM
1,COc1cc(/C=C/C=O)ccc1O [CONIFERYL ALDEHYDE],14%
2,COc1ccc([C@H]2Oc3c(OC)cc(/C=C/CO)cc3[C@@H]2CO)cc1OC [Hierochin B],7.6%

# Biological target: T1, Tyrosinase (Agaricus bisporus) (UniProt O42713)
# T1 sequence (whole entry): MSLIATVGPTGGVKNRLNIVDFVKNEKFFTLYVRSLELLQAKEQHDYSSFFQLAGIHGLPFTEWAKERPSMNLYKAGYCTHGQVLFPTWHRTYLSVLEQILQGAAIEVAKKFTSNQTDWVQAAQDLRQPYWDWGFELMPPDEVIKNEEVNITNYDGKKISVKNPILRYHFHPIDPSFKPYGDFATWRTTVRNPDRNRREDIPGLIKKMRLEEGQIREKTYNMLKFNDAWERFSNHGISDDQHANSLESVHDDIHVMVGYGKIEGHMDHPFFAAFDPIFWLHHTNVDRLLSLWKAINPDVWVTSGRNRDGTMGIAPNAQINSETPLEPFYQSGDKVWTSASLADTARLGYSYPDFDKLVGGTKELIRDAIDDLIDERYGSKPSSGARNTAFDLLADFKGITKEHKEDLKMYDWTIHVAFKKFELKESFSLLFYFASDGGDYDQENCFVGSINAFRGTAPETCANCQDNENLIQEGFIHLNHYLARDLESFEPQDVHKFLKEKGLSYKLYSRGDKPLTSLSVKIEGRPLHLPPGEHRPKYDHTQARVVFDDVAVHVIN
# Test: Inhibition of mushroom tyrosinase at 1 uM
# Settings: not given
row,inhibition,Structure (SMILES)
1,1.6%,COc1cc(/C=C/C=O)ccc1O [CONIFERYL ALDEHYDE]

# Tested on: not listed separately
# Test: Toxicity in mouse B16-4A5 cells assessed as inhibition of cell proliferation at 3 uM in presence of 1 mM theophylline after 72 hrs by WST8 dye reduction assay
# Format: cell-based
# Settings: not given
row,Structure (SMILES),"inhibition at 72 h, 3 µM"
1,COc1cc(/C=C/C=O)ccc1O [CONIFERYL ALDEHYDE],-3.2%
2,COc1ccc([C@H]2Oc3c(OC)cc(/C=C/CO)cc3[C@@H]2CO)cc1OC [Hierochin B],1.3%

# Tested on: not listed separately
# Test: Toxicity in mouse B16-4A5 cells assessed as inhibition of cell proliferation at 30 uM in presence of 1 mM theophylline after 72 hrs by WST8 dye reduction assay
# Format: cell-based
# Settings: not given
row,Structure (SMILES),"inhibition at 72 h, 30 µM"
1,COc1cc(/C=C/C=O)ccc1O [CONIFERYL ALDEHYDE],11.5%
2,COc1ccc([C@H]2Oc3c(OC)cc(/C=C/CO)cc3[C@@H]2CO)cc1OC [Hierochin B],23.8%

# Biological target: T1, Tyrosinase (Agaricus bisporus)
# Test: Inhibition of mushroom tyrosinase at 3 uM
# Settings: not given
row,inhibition,Structure (SMILES)
1,4.2%,COc1cc(/C=C/C=O)ccc1O [CONIFERYL ALDEHYDE]

# Tested on: not listed separately
# Test: cells
# Settings: Mus musculus, B16-4A5, 72 h, read-out: INH
# Remark: another data set of the same source
# Description: Inhibition of theophylline-stimulated melanogenesis in mouse B16-4A5 cells at 1 uM after 72 hrs
row,Structure (SMILES),inhibition at 1 µM
1,COc1cc(/C=C/C=O)ccc1O [CONIFERYL ALDEHYDE],10.3%
2,COc1ccc([C@H]2Oc3c(OC)cc(/C=C/CO)cc3[C@@H]2CO)cc1OC [Hierochin B],-1.6%
